≈ marks a conversion by molar mass, not a printed value.
Assays:
Neisseria gonorrhoeae = experiment: Antibacterial activity against resistant Neisseria gonorrhoeae assessed inhibition of bacterial growth; assay type: functional
Staphylococcus aureus = experiment: Antibacterial activity against Staphylococcus aureus assessed inhibition of bacterial growth; assay type: functional

Compound | MIC50 (Neisseria gonorrhoeae) [µg/mL] | MIC90 (Neisseria gonorrhoeae) [µg/mL] | MIC50 (Staphylococcus aureus) [µg/mL] | MIC90 (Staphylococcus aureus) [µg/mL]
CO[C@@H]1[C@@H](OC(=O)c2ccc(C)[nH]2)[C@@H](O)[C@H](Oc2ccc3c(O)c(NC(=O)c4ccnc(N(C)C)c4)c(=O)oc3c2C)OC1(C)C | 0.5 (≈ 0.785 µM) | 0.5 (≈ 0.785 µM) | 0.5 (≈ 0.785 µM) | 0.5 (≈ 0.785 µM)
CO[C@@H]1[C@@H](OC(=O)c2ccc(C)[nH]2)[C@@H](O)[C@H](Oc2ccc3c(O)c(NC(=O)c4ccccc4)c(=O)oc3c2C)OC1(C)C | 1 (≈ 1.69 µM) | 1 (≈ 1.69 µM) | 0.063 (≈ 0.106 µM) | 0.125 (≈ 0.211 µM)
C#CCCNC(=O)O[C@H]1[C@@H](O)[C@H](Oc2ccc3c(O)c(NC(=O)c4ccc(O)c(CC=C(C)C)c4)c(=O)oc3c2C)OC(C)(C)[C@@H]1OC | 16 (≈ 24.1 µM) | 32 (≈ 48.1 µM) | 0.5 (≈ 0.752 µM) | 0.5 (≈ 0.752 µM)
CO[C@@H]1[C@@H](OC(=O)c2ccc(C)[nH]2)[C@@H](O)[C@H](Oc2ccc3c(O)c(NC(=O)c4ccncc4)c(=O)oc3c2C)OC1(C)C | 1 (≈ 1.68 µM) | 1 (≈ 1.68 µM) | 4 (≈ 6.74 µM) | 8 (≈ 13.5 µM)
CO[C@@H]1[C@@H](OC(=O)c2ccc(C)[nH]2)[C@@H](O)[C@H](Oc2ccc3c(O)c(NC(=O)c4c[nH]cn4)c(=O)oc3c2C)OC1(C)C | 1 (≈ 1.72 µM) | 1 (≈ 1.72 µM) | 1 (≈ 1.72 µM) | 1 (≈ 1.72 µM)
CO/N=C(\C(=O)N[C@@H]1C(=O)N2C(C(=O)O)=C(CSc3nc(=O)c(O)nn3C)CS[C@H]12)c1csc(N)n1 [CEFTRIAXONE] | 0.008 (≈ 0.0144 µM) | 0.25 (≈ 0.451 µM) | 1 (≈ 1.8 µM) | > 128
CO[C@@H]1[C@@H](OC(N)=O)[C@@H](O)[C@H](Oc2ccc3c(O)c(NC(=O)c4ccc(O)c(CC=C(C)C)c4)c(=O)oc3c2C)OC1(C)C [NOVOBIOCIN] | 1 (≈ 1.63 µM) | 2 (≈ 3.26 µM) | 0.25 (≈ 0.408 µM) | 0.25 (≈ 0.408 µM)
CO[C@@H]1[C@@H](OC(=O)NOC(C)(C)C)[C@@H](O)[C@H](Oc2ccc3c(O)c(NC(=O)c4ccc(O)c(CC=C(C)C)c4)c(=O)oc3c2C)OC1(C)C | 16 (≈ 23.4 µM) | 64 (≈ 93.5 µM) | 1 (≈ 1.46 µM) | 1 (≈ 1.46 µM)
CO[C@@H]1[C@@H](NC(=O)c2ccc(C)[nH]2)[C@@H](O)[C@H](Oc2ccc3c(O)c(NC(=O)c4ccc(O)c(CC=C(C)C)c4)c(=O)oc3c2C)OC1(C)C | 32 (≈ 47.4 µM) | 64 (≈ 94.7 µM) | 2 (≈ 2.96 µM) | 2 (≈ 2.96 µM)
CO[C@@H]1[C@@H](OC(=O)c2ccc[nH]2)[C@@H](O)[C@H](Oc2ccc3c(O)c(NC(=O)c4ccc(O)c(CC=C(C)C)c4)c(=O)oc3c2C)OC1(C)C | 0.5 (≈ 0.754 µM) | 1 (≈ 1.51 µM) | 0.125 (≈ 0.189 µM) | 0.25 (≈ 0.377 µM)
CO[C@@H]1[C@@H](OC(=O)c2ccc(C)[nH]2)[C@@H](O)[C@H](Oc2ccc3c(O)c(NC(=O)c4ccnc(Oc5cccnc5)c4)c(=O)oc3c2C)OC1(C)C | 0.5 (≈ 0.728 µM) | 1 (≈ 1.46 µM) | 0.5 (≈ 0.728 µM) | 1 (≈ 1.46 µM)
CO[C@@H]1[C@@H](OC(=O)c2ccc(C)[nH]2)[C@@H](O)[C@H](Oc2ccc3c(O)c(NC(=O)c4cncn4C)c(=O)oc3c2C)OC1(C)C | 0.5 (≈ 0.838 µM) | 1 (≈ 1.68 µM) | 0.5 (≈ 0.838 µM) | 0.5 (≈ 0.838 µM)
CO[C@@H]1[C@@H](OC(=O)c2ccc(C)[nH]2)[C@@H](O)[C@H](Oc2ccc3c(O)c(NC(=O)c4cn(Cc5ccccn5)cn4)c(=O)oc3c2C)OC1(C)C | 0.5 (≈ 0.742 µM) | 0.5 (≈ 0.742 µM) | 0.25 (≈ 0.371 µM) | 0.5 (≈ 0.742 µM)
CO[C@@H]1[C@@H](OC(=O)c2ccc(C)[nH]2)[C@@H](O)[C@H](Oc2ccc3c(O)c(NC(=O)c4cn(C)c(CCC(C)C)n4)c(=O)oc3c2C)OC1(C)C | 0.5 (≈ 0.75 µM) | 1 (≈ 1.5 µM) | 0.25 (≈ 0.375 µM) | 0.25 (≈ 0.375 µM)
C=Cc1cc(C(=O)Nc2c(O)c3ccc(O[C@@H]4OC(C)(C)[C@H](OC)[C@@H](OC(=O)c5ccc(C)[nH]5)[C@H]4O)c(C)c3oc2=O)ccn1 | 0.5 (≈ 0.807 µM) | 0.5 (≈ 0.807 µM) | 0.5 (≈ 0.807 µM) | 1 (≈ 1.61 µM)
CO[C@@H]1[C@@H](OC(=O)c2ccc(C)[nH]2)[C@@H](O)[C@H](Oc2ccc3c(O)c(NC(=O)c4cn(CC5CC5)cn4)c(=O)oc3c2C)OC1(C)C | 0.5 (≈ 0.785 µM) | 1 (≈ 1.57 µM) | 0.5 (≈ 0.785 µM) | 0.5 (≈ 0.785 µM)

Compound | MIC50 (Neisseria gonorrhoeae) [µg/mL] | MIC90 (Neisseria gonorrhoeae) [µg/mL] | MIC50 (Staphylococcus aureus) [µg/mL] | MIC90 (Staphylococcus aureus) [µg/mL]
CO[C@@H]1[C@@H](OC(=O)c2ccc(C)[nH]2)[C@@H](O)[C@H](Oc2ccc3c(O)c(NC(=O)c4sc5nccn5c4C)c(=O)oc3c2C)OC1(C)C | 0.5 (≈ 0.766 µM) | 0.5 (≈ 0.766 µM) | 0.5 (≈ 0.766 µM) | 1 (≈ 1.53 µM)
CO[C@@H]1[C@@H](OC(=O)c2ccc(C)[nH]2)[C@@H](O)[C@H](Oc2ccc3c(O)c(NC(=O)Cn4c(-c5ccccn5)nc5ccccc54)c(=O)oc3c2C)OC1(C)C | 0.5 (≈ 0.691 µM) | 0.5 (≈ 0.691 µM) | 0.25 (≈ 0.345 µM) | 0.5 (≈ 0.691 µM)
CCCn1cnc(C(=O)Nc2c(O)c3ccc(O[C@@H]4OC(C)(C)[C@H](OC)[C@@H](OC(=O)c5ccc(C)[nH]5)[C@H]4O)c(C)c3oc2=O)c1 | 1 (≈ 1.6 µM) | 1 (≈ 1.6 µM) | 0.5 (≈ 0.8 µM) | 0.5 (≈ 0.8 µM)
CCc1cc(C(=O)Nc2c(O)c3ccc(O[C@@H]4OC(C)(C)[C@H](OC)[C@@H](OC(=O)c5ccc(C)[nH]5)[C@H]4O)c(C)c3oc2=O)ccn1 | 0.5 (≈ 0.804 µM) | 1 (≈ 1.61 µM) | 0.5 (≈ 0.804 µM) | 1 (≈ 1.61 µM)
C=CCONC(=O)O[C@H]1[C@@H](O)[C@H](Oc2ccc3c(O)c(NC(=O)c4ccc(O)c(CC=C(C)C)c4)c(=O)oc3c2C)OC(C)(C)[C@@H]1OC | 1 (≈ 1.5 µM) | 2 (≈ 2.99 µM) | 0.125 (≈ 0.187 µM) | 0.25 (≈ 0.374 µM)
CO[C@@H]1[C@@H](OC(=O)c2ccc(C)[nH]2)[C@@H](O)[C@H](Oc2ccc3c(O)c(NC(=O)c4c(C)ncn4CC=C(C)C)c(=O)oc3c2C)OC1(C)C | 0.5 (≈ 0.752 µM) | 0.5 (≈ 0.752 µM) | 0.5 (≈ 0.752 µM) | 0.5 (≈ 0.752 µM)
CO[C@@H]1[C@@H](OC(=O)c2ccc(C)[nH]2)[C@@H](O)[C@H](Oc2ccc3c(O)c(NC(=O)c4cccc(N5CCN(C)CC5)c4)c(=O)oc3c2C)OC1(C)C | 1 (≈ 1.45 µM) | 1 (≈ 1.45 µM) | 0.5 (≈ 0.724 µM) | 0.5 (≈ 0.724 µM)
CO[C@@H]1[C@@H](OC(=O)c2ccc(C)[nH]2)[C@@H](O)[C@H](Oc2ccc3c(O)c(NC(=O)c4ccnc(N)c4)c(=O)oc3c2C)OC1(C)C | 0.5 (≈ 0.822 µM) | 1 (≈ 1.64 µM) | 2 (≈ 3.29 µM) | 2 (≈ 3.29 µM)
CO[C@@H]1[C@@H](OC(=O)c2ccc(C)[nH]2)[C@@H](O)[C@H](Oc2ccc3c(O)c(NC(=O)c4cn(Cc5cccc(C(F)(F)F)c5)cn4)c(=O)oc3c2C)OC1(C)C | 0.25 (≈ 0.338 µM) | 0.5 (≈ 0.675 µM) | 0.125 (≈ 0.169 µM) | 0.25 (≈ 0.338 µM)
CO[C@@H]1[C@@H](OC(=O)c2[nH]c(C)cc2C)[C@@H](O)[C@H](Oc2ccc3c(O)c(NC(=O)c4ccc(O)c(CC=C(C)C)c4)c(=O)oc3c2C)OC1(C)C | 0.25 (≈ 0.362 µM) | 0.25 (≈ 0.362 µM) | 0.063 (≈ 0.0912 µM) | 0.125 (≈ 0.181 µM)
CO[C@@H]1[C@@H](OC(=O)c2ccc(C)[nH]2)[C@@H](O)[C@H](Oc2ccc3c(O)c(NC(=O)c4csc(C)n4)c(=O)oc3c2C)OC1(C)C | 0.25 (≈ 0.407 µM) | 0.5 (≈ 0.815 µM) | 0.25 (≈ 0.407 µM) | 0.25 (≈ 0.407 µM)
CO[C@@H]1[C@@H](OC(=O)NOCC(C)C)[C@@H](O)[C@H](Oc2ccc3c(O)c(NC(=O)c4ccc(O)c(CC=C(C)C)c4)c(=O)oc3c2C)OC1(C)C | 4 (≈ 5.84 µM) | 16 (≈ 23.4 µM) | 0.5 (≈ 0.73 µM) | 1 (≈ 1.46 µM)
CO[C@@H]1[C@H](NC(=O)c2ccc(C)[nH]2)[C@@H](O)[C@H](Oc2ccc3c(O)c(NC(=O)c4ccc(O)c(CC=C(C)C)c4)c(=O)oc3c2C)OC1(C)C | 64 (≈ 94.7 µM) | > 64 | > 128 | > 128
CO[C@@H]1[C@@H](OC(=O)c2ccc(C)[nH]2)[C@@H](O)[C@H](Oc2ccc3c(O)c(NC(=O)c4cscn4)c(=O)oc3c2C)OC1(C)C | 0.5 (≈ 0.834 µM) | 0.5 (≈ 0.834 µM) | 0.5 (≈ 0.834 µM) | 0.5 (≈ 0.834 µM)
CO[C@@H]1[C@@H](OC(=O)c2cc(Cl)c(C)[nH]2)[C@@H](O)[C@H](Oc2ccc3c(O)c(NC(=O)c4ccc(O)c(CC=C(C)C)c4)c(=O)oc3c2C)OC1(C)C | 0.5 (≈ 0.703 µM) | 1 (≈ 1.41 µM) | 0.063 (≈ 0.0886 µM) | 0.125 (≈ 0.176 µM)
CC[C@H]1OC(=O)[C@H](C)[C@@H](O[C@H]2C[C@@](C)(OC)[C@@H](O)[C@H](C)O2)[C@H](C)[C@@H](O[C@@H]2O[C@H](C)C[C@H](N(C)C)[C@H]2O)[C@](C)(O)C[C@@H](C)CN(C)[C@H](C)[C@@H](O)[C@]1(C)O [AZITHROMYCIN] | 0.25 (≈ 0.334 µM) | 8 (≈ 10.7 µM) | > 128 | > 128

Source: ChEMBL document CHEMBL5325486, “Synthesis of novobiocin derivatives and evaluation of their antigonococcal activity and pharmacokinetics” (Bioorg Med Chem, 2023)
